Experimental data taken from patent US11318178B2, “Lactobacillus reuteri ATG-F4 strain having function of enhancing dopamine secretion and pharmaceutical composition comprising same for prevention or treatment of psychopathy” (ATOGEN CO., LTD, priority 2018, dated 2022).

Experiments:
dopamine = experiment: Serum dopamine ELISA after 4-week feeding of mice; type: in vivo, C57BL/6J mice; conditions: 4 weeks in drinking water (F4 about 10^7 CFU/ml; ampicillin 1 g/l); control 2.95 ng/ml
Text: (§1) Before all animal experiments, animal experimentation was approved and approval number ATG-IACUC-REV-180810 was granted through appropriate procedures by the Institutional Animal Care and Use Committee (IACUC) of AtoGEN, and a guide to ethical animal experiments was followed. 4-week-old C57BL/6J mice were purchased through Central Laboratory Animal (Seoul, Korea), and the experimental groups that were used were a control fed with general feed and drinking water (Ctrl), a gut microbiota dysbiosis experimental group (Amp) fed with general feed and drinking water containing 1 g/l of ampicillin, and an experimental group fed with general feed and drinking water containing about 10^7 CFU/ml of lactic-acid bacteria F4 (F4). Five mice were used for each experimental group. After stabilizing the 4-week-old mice for 1 week, the experiment was conducted for 4 weeks using the experimental groups described above. The entire experiment was independently repeated twice.
(§2) After the 4-week feeding experiment, the mice were anesthetized using ether, and blood was obtained from the heart thereof. […] The serum thus obtained was measured to determine the amounts of dopamine and serotonin in the blood using a dopamine ELISA kit (Abnova, Taiwan) and a serotonin ELISA kit (Abcam, USA).

serotonin = experiment: Serum serotonin ELISA after 4-week feeding of mice; type: in vivo, C57BL/6J mice; conditions: 4 weeks in drinking water (F4 about 10^7 CFU/ml; ampicillin 1 g/l); control 3537.2 ng/ml
Text: as §1, §2

[1] = system: mouse macrophage cell line RAW264.7; experiment: IL-10 ELISA of culture solution of RAW264.7 cells with or without LPS; type: cell-based; conditions: 1 μg/ml LPS alone (positive control), 24 hr
Experimental: In order to measure the anti-inflammatory effect of F4 lactic-acid bacteria, a cytokine quantification experiment using cells was performed. F4 lactic-acid bacteria as a treatment material were subjected to liquid culture in an MRS broth and were then centrifuged, after which the cells of the strain were recovered and concentrated 10-fold. The concentrated solution thus obtained was treated with lysozyme for 1 hr, lysed through sonication, and then quantified through solid content analysis. […] In order to confirm whether the generation of nitric oxide (NO) as an additional inflammation indicator was inhibited in the LPS-induced group, a predetermined amount of the cell culture supernatant obtained in the cell experiment for measuring cytokines was transferred into 96 wells, and 100 μl of a Griess reagent (modified, SIGMA, USA) was injected thereto, after which reaction was carried out at room temperature for 10 min and absorbance at 540 nm was measured using an ELISA reader. The amount of NO that was produced was calculated by comparing the proportion of NO present in the cell culture solution with the LPS-treated group as a control.

CC1(C)S[C@@H]2[C@H](NC(=O)[C@H](N)c3ccccc3)C(=O)N2[C@H]1C(=O)O [Amp, ampicillin]
dopamine in serum (dopamine): 2.09 ng/mL | serotonin in serum (serotonin): 2365.0 ng/mL

lipopolysaccharide [LPS]
IL-10 production [1]: 166.60 pg/mL
